pIC50: −log10 of the molar value. Where no end group is shown, it is not given here.

One data set deals with HSV-2. The data set can be described thus: Plaque reduction assay, HSV-2 in VERO cells. Format: cell-based, herpes simplex virus. The note with it: 100 μM. Here is the method:
(§1) Murine Cytomegalovirus (MCMV) RM4503 was cultured in vitro in MEF 10.1 cells. The virus stock was titered using plaque assay (described below) and stored at −80° C. Human Cytomegalovirus (HCMV) TB40/E was obtained from (46, 47) and cultures in vitro in HFF cells. The virus stock was titered using plaque assay and stored at −80° C. HSV-1 and HSV-2 were cultured in vitro in VERO cells. The virus stock was titered using plaque assay and stored at −80° C.
(§2) Peptides were screened for their ability to reduce viral infection using a plaque reduction assay. Cells were cultured in 12-well (VERO) or 24-well culture plates (MEF 10.1 and HFF). When the cells reached ˜80% confluence the media was removed and the cells washed once with PBS before addition of peptide. As a control, cells were incubated with PBS alone. After a 30 min of incubation with peptide in PBS, the virus was added and incubated for another 90 min (HSV and HCMV) or 60 min (MCMV). Following virus incubation the peptide/virus mixture was removed and replaced with 0.75% carboxy-methyl cellulose (Sigma Aldrich, St. Louis, Mo.)+complete media (CMC) or 0.5% agarose (Lonza, Rockland, Me.) in complete media. […] Plaques were counted manually and data analyzed using Prism 5.0 (GraphPad Software, La Jolla, Calif.). Data were expressed as % plaques relative to the average number of plaques in the PBS-treated wells.
Background: In a plaque reduction assay, fewer plaques than in the control indicate reduced infectivity or spread.

The subject of data set [1] is MEF 10.1 cells. The data set is described as follows: Measuring amount of bound biotinylated peptide on MEF 10.1 cells (time resolved fluorescence). Format: binding, Mouse. On the procedure:
(§3) Heparinase I (cat. # H2519), Heparinase II (cat. # H6512), Heparinase III (cat. # H8891) and Chondroitinase ABC (cat. # C3667) were obtained from Sigma Aldrich (St. Louis, Mo.). MEF 10.1 cells in culture were treated with heparinase re-suspended in heparinase buffer (20 mM Tris-HCl, pH 7.5, 50 mM NaCl, 4 mM CaCl2, and 0.01% BSA) at a concentration of 1 U/ml or chondroitinase re-suspended in chondroitinase buffer (50 mM Tris, pH 8.0, 60 mM sodium acetate and 0.02% bovine serum albumin) at a concentration of 1 U/ml for 1 h. at 37° C. As a control, cells were treated with enzyme buffer alone. Following incubation the enzyme solution was removed and cells were washed once with PBS to remove excess enzyme. Subsequently the cells were treated with peptide or infected with virus. The data was collected and analyzed as described previously.
MEF 10.1 Cells were grown in 24-well cell culture plates as described above. Each well was probed with 100 μL of biotinylated peptides at 1 μg/mL in cold DMEM/F12 with 0.1% BSA and incubated for one hour at 4° C. Following the incubation the cells were washed twice with ice cold PBS and fixed with 1.25% glutaraldehyde. Fixed samples were washed twice and stored in PBS for 24 hours. […] The plate was washed three times with PBS, enhancement solution added, and time resolved fluorescence measured on the Wallac Victor 3 (Perkin-Elmer).

In data set [2] the test system is MEF 10.1 cells. The data set can be described thus: Visualization of bound biotinylated peptide on fixed MEF cells (fluorescence). Particulars: 1.6 μg/mL, streptavidin fluorescence. In kind it is binding, Mouse. On the procedure: Coverslips with fixed MEF cells prepared, washed in PBS and blocked with 1% BSA/PBS for 5 min. Following a PBS wash the nuclei were stained by using Hoechst (Life Technologies Molecular Probes, Grand Island, N.Y.) 1:100 in H2O— for 30 min at 37° C. Tissues were then blocked using a casein block solution (Scytek) for 5 min, AVIDIN/Biotin blocks (VECTOR, Burlingame, Calif.) for 20 min each at room temperature (RT) followed by a 5 min PBS wash. Biotinylated GGGY-p5+14 (SEQ ID NO: 25) or p5G (control) at 1.6 μg/mL in PBS was added and the tissues incubated overnight at 4° C. Following a PBS wash Alexa Fluor 594-conjugated streptavidin (Molecular Probes) was added at a 1:200 dilution in PBS for lhr at RT. Cells were then permeabilized by addition of 0.2% Triton X-100 (Sigma) in PBS for 10 min at RT and washed with a solution of 1% BSA in PBS for 30 min. The cells were then stained with Alexa Fluor 488-conjugated phalloidin (Molecular Probes) 1:100 dilution of stock in 1% BSA/PBS, for 45 min. at RT to visualize cytoskeleton. Slides were cover-slipped using a fluorescent mounting medium (Dako, Carpinteria, Calif.) to minimize photobleaching.

Another data set relates to HCMV. The data set can be described thus: Plaque reduction assay, HCMV infectivity in HFF cells. Format: cell-based, Human Cytomegalovirus. Particulars: 100 μM. On the procedure:
as §1, §2

For data set [3], the system named is MCMV. The data set can be described thus: Enzymatic treatment of cells (heparinase / chondroitinase) followed by MCMV plaque reduction assay. In kind it is cell-based, Murine Cytomegalovirus. Here is the method: as §3
Data set [4] deals with MCMV. The data set can be described thus: Interference of peptide mediated reduction by heparin (MCMV plaque reduction). In kind it is cell-based, Murine Cytomegalovirus. The note with it: peptide 100 μM pre-incubated with heparin 1 h at 37° C. before addition to cells. Here is the method: Peptide GGGY-p5+14 (SEQ ID NO: 25) (at 100 μM) was pre-incubated with heparin sodium salt (Acros Organics, NJ) at different concentrations for 1 h at 37° C. Following which the heparin/peptide mix was added to the cells and incubated for 30 min at 37° C. Following the incubation, the supernatant was aspirated and cells washed once with PBS to remove unbound/excess heparin or peptide. The cells were subsequently infected with ˜100 pfu/well of MCMV. To test whether heparin treatment of cells interferes with virus infection, MEF 10.1 cells in a 24 well dish were pre-incubated with different concentrations of heparin for 1 hour and washed as described above. Following the pre-incubation infection was initiated as mentioned above. Finally to test the effect of heparin treatment on the infectivity of virus, MCMV was incubated with different concentration of heparin for lhr before infecting cells. For all these treatments, the virus was removed lhr post infection and cells overlaid with CMC. Plates were incubated for 4 days before staining and counting the plaques. Plaque reduction assay was performed as mentioned above.

Data set [5] concerns MCMV. Format: cell-based, Murine Cytomegalovirus. On the procedure:
as §1
Peptides were screened for their ability to reduce viral infection using a plaque reduction assay. Cells were cultured in 12-well (VERO) or 24-well culture plates (MEF 10.1 and HFF). When the cells reached ˜80% confluence the media was removed and the cells washed once with PBS before addition of peptide. As a control, cells were incubated with PBS alone. After a 30 min of incubation with peptide in PBS, the virus was added and incubated for another 90 min (HSV and HCMV) or 60 min (MCMV). Following virus incubation the peptide/virus mixture was removed and replaced with 0.75% carboxy-methyl cellulose (Sigma Aldrich, St. Louis, Mo.)+complete media (CMC) or 0.5% agarose (Lonza, Rockland, Me.) in complete media. The plates were incubated at 37° C. in 5% CO2 for 4 days when plaques began to develop, following which they were stained with Coomassie stain (AMRESCO, Solon, Ohio). Plaques were counted manually and data analyzed using Prism 5.0 (GraphPad Software, La Jolla, Calif.). Data were expressed as % plaques relative to the average number of plaques in the PBS-treated wells.
In the initial screening assays all peptides were tested at a single concentration (500 μg/ml) using a plaque-reduction assay, in which mouse embryonic fibroblasts were incubated with the peptides for 30 min prior to the addition of virus.
In the infectivity assays described above the peptide and virus were co-incubated with the cells. Therefore to ensure the peptide was not directly inactivating the virus, MCMV was incubated with 100 μM (˜20× the IC50) peptide at 37° C. for 1 h, diluted to an ineffective peptide concentration (1 μM) and fibroblast infection rates measured.
To determine at which stage of the MCMV entry cycle the peptide interferes, four different peptide treatment protocols were tested, 1) 30 min. prior to infection (pre-adsorption) 2) simultaneously with virus (during adsorption) 3) after letting the virus adsorb to the cells at 4° C. for lhr (post adsorption) or 4) after allowing the virus to fuse with the cell membrane at 37° C. for lhr (post fusion) (FIG. 3(B)).

The conditions of data set [6]: mouse, in vivo; cited from earlier work.

In the case of “GGGYSKAQKAQAKQAKQAQKAQKAQAKQAKQAQKAQKAQAKQAKQ [GGGY-p5+14]”, in the data set with HSV-2, the “reduction of HSV 2 infection” value is ~40%. Moreover, the “reduction in the amount of bound peptide” value in the data set on MEF 10.1 cells [1] (cells treated with chondroitinase) is recorded as ~11%; in the data set with MEF 10.1 cells [1] (cells treated with heparinase), ~40%. Further, the “binding to mouse fibroblasts in culture” value with MEF 10.1 cells [2] is “bound mouse fibroblasts”. Further, in the data set with HCMV, the “reduction of infection (HCMV)” value is given as ~80%. The “effect of chondroitinase treatment of cells on the activity of the peptide” value in the data set on MCMV [3] (chondroitinase 1 U/ml) is listed as “nor did it have any effect on the activity of the peptide”. Besides, in the data set on MCMV [3] (heparinase 1 U/ml plus peptide), the “reduction in MCMV infectivity, peptide added to heparinase treated cells” value is listed as ~80%. In addition, the “effect of pre-incubation of peptide with heparin on inhibition of MCMV infection” value in the data set with MCMV [4] was “reduced its ability to inhibit MCMV infection in a dose-dependent manner”. In the data set on MCMV [5], this sequence gave a pIC50 of 5.28. The “reduction in infection (MCMV)” value in the data set with MCMV [5] (10 μM) is > 80%. The “inhibition of MCMV infection” value in the data set on MCMV [5] (100 μM) was “effectively inhibited”. Moreover, the “inhibition of MCMV infection (plaque reduction)” value in the data set with MCMV [5] (500 μg/ml, mouse embryonic fibroblasts incubated with peptide 30 min prior to virus) is > 90%. Moreover, the “direct neutralizing effect on the virus” value in the data set on MCMV [5] (MCMV incubated with 100 μM peptide at 37° C. for 1 h, diluted to 1 μM) was “did not have any direct neutralizing effect on the virus itself”. The “plaque formation, peptide added after the adsorption or fusion phase of viral entry” value in the data set on MCMV [5] (post adsorption or post fusion) is “no significant reduction in plaque formation”. In the data set on MCMV [5] (pre-adsorption or during adsorption), the “infection (plaque formation), peptide added before or in conjunction with virus addition” value was > 80%. Moreover, the “concentrations giving significant reduction in infection” value in the data set on MCMV [5] (serial dilution of peptide, FIG. 1(B)) was > 5 µg/mL. Besides, the “peptide binding to GAGs expressed in healthy organs or tissues” value in data set [6] was “no evidence of peptide binding to GAGs expressed in healthy organs or tissues”.

Broadly, the pIC50 is the negative decadic logarithm of the IC50, by convention in mol/L. The low end stands for a high IC50, the high end for a low IC50.
